Assay results: PubChem BioAssay (NCI)
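Dose response: 5 concentrations. Exposure: 48 h. Format: 96-well plates. Endpoint: linear interpolation; highest concentration if not reached. TGI: concentration producing complete growth inhibition.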

How the values were obtained:
Assay in all cases: DTP human tumour cell line panel, 48 h
SN12C renal = system: SN12C renal
SNB-19 CNS = system: SNB-19 CNS
OVCAR-8 ovarian = system: OVCAR-8 ovarian
MOLT-4 leukemia = system: MOLT-4 leukemia
NCI-H522 lung = system: NCI-H522 lung
HL-60(TB) leukemia = system: HL-60(TB) leukemia
KM12 colon = system: KM12 colon
RPMI-8226 leukemia = system: RPMI-8226 leukemia
SK-MEL-5 melanoma = system: SK-MEL-5 melanoma
PC-3 prostate = system: PC-3 prostate
HOP-62 NSCLC = system: HOP-62 NSCLC
OVCAR-5 ovarian = system: OVCAR-5 ovarian
HS 578T breast = system: HS 578T breast
NCI-H460 lung = system: NCI-H460 lung
M14 melanoma = system: M14 melanoma
MALME-3M melanoma = system: MALME-3M melanoma
NCI/ADR-RES ovarian = system: NCI/ADR-RES ovarian
MDA-MB-231 breast = system: MDA-MB-231 breast
BT-549 breast = system: BT-549 breast

Compound	TGI (SN12C renal) [µM]	TGI (SNB-19 CNS) [µM]	TGI (OVCAR-8 ovarian) [µM]	TGI (MOLT-4 leukemia) [µM]	TGI (NCI-H522 lung) [µM]	TGI (HL-60(TB) leukemia) [µM]	TGI (KM12 colon) [µM]	TGI (RPMI-8226 leukemia) [µM]	TGI (SK-MEL-5 melanoma) [µM]	TGI (PC-3 prostate) [µM]	TGI (HOP-62 NSCLC) [µM]	TGI (OVCAR-5 ovarian) [µM]	TGI (HS 578T breast) [µM]	TGI (NCI-H460 lung) [µM]	TGI (M14 melanoma) [µM]	TGI (MALME-3M melanoma) [µM]	TGI (NCI/ADR-RES ovarian) [µM]	TGI (MDA-MB-231 breast) [µM]	TGI (BT-549 breast) [µM]
CCCCCCCCCCCCOc1ccc(/C=C/C2=[N+](CCCl)CCO2)cc1	> 100	> 100	> 100	> 100	47	28.8	> 100	> 100	> 100	> 100	> 100	> 100	> 100	> 100	> 100	> 100	> 100	> 100	> 100
CCCCCCOc1ccc(C(=O)N(C)O)cc1	> 93.9	> 100	61	50.4	90.6	33.2	> 100	46.6	62.5	98	> 83.5	> 100	> 100	30	39.3	57.3	57.1	> 100	> 100
N#Cc1c(Cl)nc2ccccc2c1N=[N+]=[N-]	10.7	29.7	7.7	3.17	4.62	3.3	17.8	7.89	27.7	8.44	32.7	15.2	17.3	21.4	6.48	3.75	37.3	3.62	4.16
CCOC(=O)c1nc2ccccc2nc1Oc1cc(OC)c(OC)c(OC)c1	> 100	> 100	> 100	> 100	> 100	> 100	> 100	> 100	> 100	> 100	> 100	> 100	> 100	> 100	> 100	> 100	> 100	> 100	> 100
N#Cc1c(O)c(N=Nc2ccc(Cl)cc2)c(=O)n2c1[nH]c1ccccc12	> 100	> 100	> 100	> 100	> 100	> 100	> 100	85.5	> 100	> 100	65.3	> 100	> 100	> 100	> 100	> 100	> 100	> 100	> 100
CC(C)(C)OC(=O)c1ccc(NCC2=CC(=O)C=CC2=O)cc1	23.8	31.4	26.9	4.38	3.1	3.29	29.6	> 27.1	29	24.4	> 61.8	32.5	46	> 59.5	17.6	9.82	28.2	21.6	29.5
O=C1c2ccccc2CC12Cc1ccccc1C2	> 100	> 100	> 100	> 100	> 100	48.4	> 100	> 100	56.1	> 100	> 100	> 100	> 100	> 100	> 100	> 100	89.1	> 100	> 100
Cc1sc(C)c2c1C(=O)CC2N (stereo not drawn)	> 58.6	> 100	44.9	23.7	10.9	22.9	> 46.4	49.2	> 100	> 60.6	> 100	> 100	98	> 70.2	27.6	28.4	> 100	57	43.7
CO[C@@H]1C[C@H]2N3CC[C@@]2(c2cc4c(cc2C3)OCO4)[C@H]2O[C@@H]12	> 100	> 100	> 100	> 100	> 100	> 100	> 100	> 100	0.303	> 100	> 100	> 100	> 100	> 100	> 100	> 100	> 100	> 100	> 100
COc1cc(Nc2nnc3n2S(=O)(=O)c2cc(C)c(Cl)cc2S3)cc(OC)c1	> 100	77.6	81.1	60.9	8.44	49.7	> 100	95.7	68.7	47	26.7	> 100	66.9	> 100	> 100	23.1	> 100	74.5	22.1
C=C(C)C(O)C(O)C[C@@H](C)C1CC[C@]23C[C@]12CCC1[C@@]2(C)CCC(OC(C)=O)C(C)(C)C2CC(OC2OC(CO)C(O)C(O)C2O)[C@]13C (stereo partly drawn)	30.9	45.1	37.1	38.3	30.7	36.7	31.8	46.5	33.1	34.7	31.9	45.9	39.6	34.5	28.4	32.3	> 100	28.2	27.6
O=c1c2cc(Cl)ccc2[nH]c2cc(O)cc(O)c12	> 10	> 10	> 10	> 10	> 10	> 10	> 10	> 10	> 10	> 10	> 10	> 10	> 10	> 10	> 10	> 10	> 10	> 10	> 10
